Measured values from BindingDB's records for doi:10.1007/s00044-011-9583-7 (n/a, 2012).
pIC50: −log10 of the molar value.

Test: Inhibition of rat intestinal alpha-glucosidase using para-nitrophenyl-alpha-D-glucopyranoside as substrate incubated for 5 min prior to substrate addition measured after 5 min by spectrophotometric analysis

| Structure (SMILES) | pIC50 |
| --- | --- |
| O=C(/C=C/c1ccccc1)c1cc2ccoc2cc1O | 4.84 |
| COc1cc(OC)c(OC)cc1/C=C/C(=O)c1cc2ccoc2cc1O | 4.87 |
| COc1ccc(/C=C/C(=O)c2cc3ccoc3cc2O)cc1OC | 4.97 |
| COc1ccc(/C=C/C(=O)c2ccc3occc3c2O)c(OC)c1OC | 4.76 |

Continued by rising pIC50, values first:

| pIC50 | Structure (SMILES) |
| --- | --- |
| 4.72 | O=C(/C=C/c1ccc(O)c(O)c1)c1cc2ccoc2cc1O |
| 4.82 | O=C(/C=C/c1ccc(O)c(O)c1)c1ccc2occc2c1O |
| 4.96 | O=C(/C=C/c1ccc(O)cc1)c1ccc2occc2c1O |
| 5.04 | COc1ccc(/C=C/C(=O)c2ccc3occc3c2O)cc1 |
| 5.30 | COc1ccc(/C=C/C(=O)c2ccc3occc3c2O)cc1OC |
